Experimental data from US20260022142A1, “MACROCYCLIC IMMUNOMODULATORS” (Bristol-Myers Squibb Company, priority 2022, published 2026).
Bridge positions count the residues as written; N and C are the ends. Square brackets hold non-standard residues; d marks the D form. Peptide text beside a SMILES is read from it. * marks the point of attachment. Bip = N[C@@H](Cc1ccc(-c2ccccc2)cc1)C(=O)O; Phe(3-Me) = Cc1cccc(C[C@H](N)C(=O)O)c1; 4Pal = N[C@@H](Cc1ccncc1)C(=O)O; Cha = N[C@@H](CC1CCCCC1)C(=O)O; Carboxymethyl = O=C(O)C*; Orn = NCCC[C@H](N)C(=O)O; Aun = NCCCCCCCCCCC(=O)O; Dab = NCC[C@H](N)C(=O)O; Dap = NC[C@H](N)C(=O)O; AEEA = NCCOCCOCC(=O)O

Target: T1, PD-1/PD-L1 interaction (PE-labeled human PD-L1-Ig binding to Jurkat cell line over-expressing human PD-1) (Homo sapiens, UniProt Q15116)
T1 construct: expressed in transfected cells; host or cells: Jurkat
Experiment: Jurkat-PD-1 Cell Binding High-Content Screening Assay (CBA)
Type: cell-based
Details: Jurkat cell line over-expressing human PD-1; PE-labeled PD-L1-Ig 20 nM final; read-out: Jurkat hPD1-PDL1 IC50
In short: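 Binding of fluorescent PD-L1-Ig (20 nM final) to Jurkat-PD-1 cells was measured by automated imaging after 1 h, following a 2 h compound pre-treatment at 37° C.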

T1 sequence (Q15116 25-288): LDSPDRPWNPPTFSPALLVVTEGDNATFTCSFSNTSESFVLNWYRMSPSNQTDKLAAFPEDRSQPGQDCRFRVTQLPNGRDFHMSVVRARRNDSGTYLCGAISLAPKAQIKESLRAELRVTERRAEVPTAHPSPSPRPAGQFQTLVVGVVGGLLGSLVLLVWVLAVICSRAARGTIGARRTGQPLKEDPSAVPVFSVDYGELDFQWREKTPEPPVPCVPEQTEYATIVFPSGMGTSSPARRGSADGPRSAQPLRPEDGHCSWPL

Cc1cccc(C[C@@H]2NC(=O)[C@H](CC(=O)O)NC(=O)[C@H](Cc3ccc(OCC(=O)O)cc3)NC(=O)[C@H](Cc3ccc(OCC(=O)O)cc3)NC(=O)CSC[C@@H](C(=O)NCCOCCOCC(=O)NCCCCCCCCCCC(=O)O)NC(=O)[C@H](CO)NC(=O)[C@H](C(C)C)NC(=O)[C@H](CC(C)C)NC(=O)[C@H](CCN)NC(=O)[C@@H](CC(C)C)NC(=O)[C@H](CCCN)NC(=O)[C@H](C(C)C)NC(=O)[C@H](Cc3ccc(-c4ccccc4)cc3)NC(=O)[C@@H](CC(C)C)NC2=O)c1 [Compound 1149] ({CH2CO}-Y(Carboxymethyl)Y(Carboxymethyl)D[Phe(3-Me)][dL][Bip]V[Orn][dL][Dab]LVSC[AEEA][Aun]-OH; thioether N-14)
IC50: 19.7 nM

CC[C@H](C)[C@@H]1NC(=O)[C@H](Cc2ccc(-c3ccccc3)cc2)NC(=O)[C@H](C(C)C)NC(=O)[C@H](Cc2c[nH]c3ccccc23)NC(=O)[C@H](CC(=O)O)NC(=O)[C@H](Cc2ccc(OCC(=O)O)cc2)NC(=O)[C@H](Cc2ccncc2)NC(=O)CSC[C@@H](C(=O)NCCOCCOCC(=O)NCCCCCCCCCCC(=O)O)NC(=O)[C@H]([C@@H](C)O)NC(=O)[C@H](C(C)C)NC(=O)[C@H](CC(C)C)NC(=O)[C@H](CCN)NC(=O)[C@@H](CC(C)C)NC(=O)[C@H](CCCN)NC1=O [Compound 1150] ({CH2CO}-[4Pal]Y(Carboxymethyl)DWV[Bip]I[Orn][dL][Dab]LVTC[AEEA][Aun]-OH; thioether N-14)
IC50: 33.5 nM

CC[C@H](C)[C@@H]1NC(=O)[C@H](Cc2ccc(-c3ccccc3)cc2)NC(=O)[C@H](C(C)C)NC(=O)[C@H](Cc2c[nH]c3ccccc23)NC(=O)[C@H](CC(=O)O)NC(=O)[C@H](Cc2ccc(OCC(=O)O)cc2)NC(=O)[C@H](Cc2ccncc2)NC(=O)CSC[C@@H](C(=O)N[C@@H](CCCN)C(=O)NCCOCCOCC(=O)NCCCCCCCCCCC(=O)O)NC(=O)[C@H]([C@@H](C)O)NC(=O)[C@H](C(C)C)NC(=O)[C@H](CC(C)C)NC(=O)[C@H](CCN)NC(=O)[C@@H](CC(C)C)NC(=O)[C@H](CCCN)NC1=O [Compound 1159] ({CH2CO}-[4Pal]Y(Carboxymethyl)DWV[Bip]I[Orn][dL][Dab]LVTC[Orn][AEEA][Aun]-OH; thioether N-14)
IC50: 33.4 nM

CC[C@H](C)[C@@H]1NC(=O)[C@H](Cc2ccc(-c3ccccc3)cc2)NC(=O)[C@H](C(C)C)NC(=O)[C@H](Cc2c[nH]c3ccccc23)NC(=O)[C@H](CC(=O)O)NC(=O)[C@H](Cc2ccc(OCC(=O)O)cc2)NC(=O)[C@H](Cc2ccncc2)NC(=O)CSC[C@@H](C(=O)N[C@@H](CCCCN)C(=O)NCCOCCOCC(=O)NCCCCCCCCCCC(=O)O)NC(=O)[C@H]([C@@H](C)O)NC(=O)[C@H](C(C)C)NC(=O)[C@H](CC(C)C)NC(=O)[C@H](CCN)NC(=O)[C@@H](CC(C)C)NC(=O)[C@H](CCCN)NC1=O [Compound 1160] ({CH2CO}-[4Pal]Y(Carboxymethyl)DWV[Bip]I[Orn][dL][Dab]LVTCK[AEEA][Aun]-OH; thioether N-14)
IC50: 21 nM

CC[C@H](C)[C@@H]1NC(=O)[C@H](Cc2ccc(-c3ccccc3)cc2)NC(=O)[C@H](C(C)C)NC(=O)[C@H](Cc2c[nH]c3ccccc23)NC(=O)[C@H](CC(=O)O)NC(=O)[C@H](Cc2ccc(OCC(=O)O)cc2)NC(=O)[C@H](Cc2ccncc2)NC(=O)CSC[C@@H](C(=O)N[C@@H](CCCNC(=N)N)C(=O)NCCOCCOCC(=O)NCCCCCCCCCCC(=O)O)NC(=O)[C@H]([C@@H](C)O)NC(=O)[C@H](C(C)C)NC(=O)[C@H](CC(C)C)NC(=O)[C@H](CCN)NC(=O)[C@@H](CC(C)C)NC(=O)[C@H](CCCN)NC1=O [Compound 1161] ({CH2CO}-[4Pal]Y(Carboxymethyl)DWV[Bip]I[Orn][dL][Dab]LVTCR[AEEA][Aun]-OH; thioether N-14)
IC50: 25.3 nM

Cc1cccc(C[C@@H]2NC(=O)[C@H](CC(=O)O)NC(=O)[C@H](Cc3ccncc3)NC(=O)[C@H](Cc3ccc(OCC(=O)O)cc3)NC(=O)CSC[C@@H](C(=O)NCCOCCOCC(=O)NCCCCCCCCCCC(=O)O)NC(=O)[C@H]([C@@H](C)O)NC(=O)[C@H](C(C)C)NC(=O)[C@H](CC3CCCCC3)NC(=O)[C@H](CCN)NC(=O)[C@@H](CC(C)C)NC(=O)[C@H](CCCN)NC(=O)[C@H](C(C)C)NC(=O)[C@H](Cc3ccc(-c4ccccc4)cc3)NC(=O)[C@H](C(C)C)NC2=O)c1 [Compound 1162] ({CH2CO}-Y(Carboxymethyl)[4Pal]D[Phe(3-Me)]V[Bip]V[Orn][dL][Dab][Cha]VTC[AEEA][Aun]-OH; thioether N-14)
IC50: 20.8 nM

Cc1cccc(C[C@@H]2NC(=O)[C@H](CC(=O)O)NC(=O)[C@H](Cc3ccncc3)NC(=O)[C@H](Cc3ccc(OCC(=O)O)cc3)NC(=O)CSC[C@@H](C(=O)N[C@@H](CN)C(=O)NCCCCCCCCCCC(=O)O)NC(=O)[C@H]([C@@H](C)O)NC(=O)[C@H](C(C)C)NC(=O)[C@H](CC3CCCCC3)NC(=O)[C@H](CCN)NC(=O)[C@@H](CC(C)C)NC(=O)[C@H](CCCN)NC(=O)[C@H](C(C)C)NC(=O)[C@H](Cc3ccc(-c4ccccc4)cc3)NC(=O)[C@H](C(C)C)NC2=O)c1 [Compound 1163] ({CH2CO}-Y(Carboxymethyl)[4Pal]D[Phe(3-Me)]V[Bip]V[Orn][dL][Dab][Cha]VTC[Dap][Aun]-OH; thioether N-14)
IC50: 55.1 nM

Cc1cccc(C[C@@H]2NC(=O)[C@H](CC(=O)O)NC(=O)[C@H](Cc3ccncc3)NC(=O)[C@H](Cc3ccc(OCC(=O)O)cc3)NC(=O)CSC[C@@H](C(=O)N[C@@H](CCN)C(=O)NCCCCCCCCCCC(=O)O)NC(=O)[C@H]([C@@H](C)O)NC(=O)[C@H](C(C)C)NC(=O)[C@H](CC3CCCCC3)NC(=O)[C@H](CCN)NC(=O)[C@@H](CC(C)C)NC(=O)[C@H](CCCN)NC(=O)[C@H](C(C)C)NC(=O)[C@H](Cc3ccc(-c4ccccc4)cc3)NC(=O)[C@H](C(C)C)NC2=O)c1 [Compound 1164] ({CH2CO}-Y(Carboxymethyl)[4Pal]D[Phe(3-Me)]V[Bip]V[Orn][dL][Dab][Cha]VTC[Dab][Aun]-OH; thioether N-14)
IC50: 122 nM

Cc1cccc(C[C@@H]2NC(=O)[C@H](CC(=O)O)NC(=O)[C@H](Cc3ccncc3)NC(=O)[C@H](Cc3ccc(OCC(=O)O)cc3)NC(=O)CSC[C@@H](C(=O)N[C@@H](CCCN)C(=O)NCCCCCCCCCCC(=O)O)NC(=O)[C@H]([C@@H](C)O)NC(=O)[C@H](C(C)C)NC(=O)[C@H](CC3CCCCC3)NC(=O)[C@H](CCN)NC(=O)[C@@H](CC(C)C)NC(=O)[C@H](CCCN)NC(=O)[C@H](C(C)C)NC(=O)[C@H](Cc3ccc(-c4ccccc4)cc3)NC(=O)[C@H](C(C)C)NC2=O)c1 [Compound 1165] ({CH2CO}-Y(Carboxymethyl)[4Pal]D[Phe(3-Me)]V[Bip]V[Orn][dL][Dab][Cha]VTC[Orn][Aun]-OH; thioether N-14)
IC50: 104 nM

Cc1cccc(C[C@@H]2NC(=O)[C@H](CC(=O)O)NC(=O)[C@H](Cc3ccncc3)NC(=O)[C@H](Cc3ccc(OCC(=O)O)cc3)NC(=O)CSC[C@@H](C(=O)N[C@@H](CCCCN)C(=O)NCCCCCCCCCCC(=O)O)NC(=O)[C@H]([C@@H](C)O)NC(=O)[C@H](C(C)C)NC(=O)[C@H](CC3CCCCC3)NC(=O)[C@H](CCN)NC(=O)[C@@H](CC(C)C)NC(=O)[C@H](CCCN)NC(=O)[C@H](C(C)C)NC(=O)[C@H](Cc3ccc(-c4ccccc4)cc3)NC(=O)[C@H](C(C)C)NC2=O)c1 [Compound 1166] ({CH2CO}-Y(Carboxymethyl)[4Pal]D[Phe(3-Me)]V[Bip]V[Orn][dL][Dab][Cha]VTCK[Aun]-OH; thioether N-14)
IC50: 28 nM

Cc1cccc(C[C@@H]2NC(=O)[C@H](CC(=O)O)NC(=O)[C@H](Cc3ccncc3)NC(=O)[C@H](Cc3ccc(OCC(=O)O)cc3)NC(=O)CSC[C@@H](C(=O)N[C@@H](CCCNC(=N)N)C(=O)NCCCCCCCCCCC(=O)O)NC(=O)[C@H]([C@@H](C)O)NC(=O)[C@H](C(C)C)NC(=O)[C@H](CC3CCCCC3)NC(=O)[C@H](CCN)NC(=O)[C@@H](CC(C)C)NC(=O)[C@H](CCCN)NC(=O)[C@H](C(C)C)NC(=O)[C@H](Cc3ccc(-c4ccccc4)cc3)NC(=O)[C@H](C(C)C)NC2=O)c1 [Compound 1167] ({CH2CO}-Y(Carboxymethyl)[4Pal]D[Phe(3-Me)]V[Bip]V[Orn][dL][Dab][Cha]VTCR[Aun]-OH; thioether N-14)
IC50: 80.1 nM

Cc1cccc(C[C@@H]2NC(=O)[C@H](CC(=O)O)NC(=O)[C@H](Cc3ccncc3)NC(=O)[C@H](Cc3ccc(OCC(=O)O)cc3)NC(=O)CSC[C@@H](C(=O)N[C@@H](Cc3cnc[nH]3)C(=O)NCCCCCCCCCCC(=O)O)NC(=O)[C@H]([C@@H](C)O)NC(=O)[C@H](C(C)C)NC(=O)[C@H](CC3CCCCC3)NC(=O)[C@H](CCN)NC(=O)[C@@H](CC(C)C)NC(=O)[C@H](CCCN)NC(=O)[C@H](C(C)C)NC(=O)[C@H](Cc3ccc(-c4ccccc4)cc3)NC(=O)[C@H](C(C)C)NC2=O)c1 [Compound 1168] ({CH2CO}-Y(Carboxymethyl)[4Pal]D[Phe(3-Me)]V[Bip]V[Orn][dL][Dab][Cha]VTCH[Aun]-OH; thioether N-14)
IC50: 147 nM

Cc1cccc(C[C@@H]2NC(=O)[C@H](CC(=O)O)NC(=O)[C@H](Cc3ccncc3)NC(=O)[C@H](Cc3ccc(OCC(=O)O)cc3)NC(=O)CSC[C@@H](C(=O)NCCOCCOCC(=O)N[C@@H](CN)C(=O)NCCCCCCCCCCC(=O)O)NC(=O)[C@H]([C@@H](C)O)NC(=O)[C@H](C(C)C)NC(=O)[C@H](CC3CCCCC3)NC(=O)[C@H](CCN)NC(=O)[C@@H](CC(C)C)NC(=O)[C@H](CCCN)NC(=O)[C@H](C(C)C)NC(=O)[C@H](Cc3ccc(-c4ccccc4)cc3)NC(=O)[C@H](C(C)C)NC2=O)c1 [Compound 1169] ({CH2CO}-Y(Carboxymethyl)[4Pal]D[Phe(3-Me)]V[Bip]V[Orn][dL][Dab][Cha]VTC[AEEA][Dap][Aun]-OH; thioether N-14)
IC50: 28.7 nM
